This data set can be described thus: Serum and CSF concentrations in monkey (LC-MS/MS). Type of data set: in vivo, rhesus monkey (Macaca mulatta). Particulars: 0.1 mg kg-1. On the procedure:
Monkey blood and CSF samples were collected from totally implanted subcutaneous access ports (Access Technologies, Virginia), connected to catheters indwelling in the femoral artery or intrathecal space of the spinal column, respectively. Rodent blood samples and brains were collected immediately following sacrifice at the indicated time points after intraperitoneal injection (10 ml kg^−1) in buffered saline. CSF was immediately frozen on dry ice and stored at −80 °C. Blood samples were allowed to coagulate for 15 min and then centrifuged at 4 °C for 15 min. Serum was collected from the supernatant and stored at a minimum of −30 °C until extraction. To 25 µl of serum, 5 µl of internal standard and 110 µl of methanol were added. Samples were centrifuged for 10 min at 16,200×g at 4 °C and the supernatant was transferred to the autosampler vial for analysis. Brains were cut in half and weighed prior to sample preparation. Half brains were homogenized in 490 µl of 85% ethanol: 15% water containing 0.1% formic acid and 5 µl of internal standard using a polytron homogenizer and centrifuged for 10 min at 16,200×g at 4 °C. […]
Data were acquired using a Nexera XR HPLC (Shimadzu) coupled with a QTRAP 6500 (SCIEX), and was analyzed with Analyst 1.6 (SCIEX). […]
The data were measured using standard curves and quality controls, but it was not validated to ICH guidelines. […]

For `CCN1CCN(C2=Nc3cc(Cl)ccc3Nc3c(F)cccc32)CC1` [JHU37160, 8-Chloro-11-(4-ethylpiperazin-1-yl)-4-fluoro-5H-dibenzo[b,e][1,4]diazepine], the CSF concentration entry is recorded as “below our system’s detection limit” and the serum detection entry is “detected in serum”.

Source of the values: PMC6788984, “High-potency ligands for DREADD imaging and activation in rodents and monkeys” (Nature Communications, 2019).
